Paper PMC8482815, “Targeting Host Glycolysis as a Strategy for Antimalarial Development” (Frontiers in Cellular and Infection Microbiology, 2021)
Where “and” joins values, the source holds several entries; their conditions need not be identical. Equal values may be shown once.

Tested on: human erythrocytes
Experiment: Untargeted metabolomics and 13C-glucose tracing of enolase inhibitor treated erythrocytes
Assay type: cell-based
Conditions: 0.5h
Method: Freshly collected erythrocytes were washed, resuspended to 10% hematocrit in buffer [25mM HEPES (pH 7.4), 120mM NaCl, 5.4mM KCl, 1.8mM CaCl2, and 1mM NaH2PO4], incubated for 1 hour at 37°C, then centrifuged at 2000xg for 5 minutes at 4°C, resuspended in fresh wash buffer to 30-40% hematocrit, and split into 210µL aliquots of packed erythrocytes. […] All samples were incubated at 37°C shaking at 500 RPM. Triplicate samples of supernatants and packed erythrocytes were collected at 0, 0.5, 1, and 6-hour intervals and snap-frozen in liquid N2.
RBC and media samples were extracted at 1:10 and 1:20 dilutions, respectively, in 5:3:2 MeOH : MeCN:H2O v/v/v, and supernatants analyzed on a Thermo Vanquish UHPLC coupled to a Thermo Q Exactive mass spectrometer, as extensively described ([Nemkov et al., 2015]; [Nemkov et al., 2017]). The extraction buffer was supplemented with 40uM 3-^13C lactate to allow absolute quantification of lactate isotopologues, including lactate generated via glycolysis ([1,2,3-^13C3] enriched) vs. the pentose phosphate pathway ([2,3-^13C2] enriched), as described ([Reisz et al., 2016]). Metabolite assignments, peak area integration and isotopologues distributions were determined using Maven (Princeton University) ([Nemkov et al., 2015]; [Nemkov et al., 2017]).
Data were auto-scaled and normalized to zero-hour time points. Metabolites were removed from the dataset if greater than 50% of the samples contained missing values or the relative standard deviation among replicates exceeded 25%. Additionally, data was filtered using the interquartile range to reduce near-constant values from the experiment by 5%.
A principal component analysis of preprocessed data was plotted with the 95% confidence interval minimum volume enclosing ellipsoid for each respective group (MetaboAnalyst, cluster, plotly). A two-way repeated measures analysis of variance (ANOVA) was performed with multiple comparisons corrected for using a false discovery rate p-value cutoff of 0.05. Metabolite-Pathway analysis was performed using the R package of MetaboAnalyst, as previously described ([Xia and Wishart, 2010]). Metabolite-Protein nodal analysis was performed using omicsnet.ca and as previously described ([Zhou and Xia, 2018]).

[1] = treated erythrocytes, one value per replicate sample, polarity +
[2] = treated erythrocytes, one value per replicate sample, polarity -
[3] = treated erythrocytes, replicate samples

CC(C)(C)C(=O)OCOP(=O)(OCOC(=O)C(C)(C)C)C1CC(O)N(O)C1=O (stereo not shown) [POMSF]
AMP level (metabolomics signal) (replicate samples): 2.22E+06 and 1.69E+06 and 1.24E+06 | ATP level (metabolomics signal) (replicate samples): 6.37E+03 and 8.43E+03 and 5.73E+03 | Adenine level (metabolomics signal) (replicate samples): 1.92E+05 and 1.77E+05 and 1.67E+05 | Cytosine level (metabolomics signal) (replicate samples): 5.62E+05 and 5.81E+05 and 5.75E+05 | L-alanine level (metabolomics signal) (replicate samples): 8.49E+06 and 9.99E+06 and 1.01E+07 | L-arginine level (metabolomics signal) (replicate samples): 8.18E+06 and 5.94E+06 and 8.91E+06 | L-asparagine level (metabolomics signal) (replicate samples): 3.70E+06 and 4.01E+06 and 4.49E+06 | L-aspartate level (metabolomics signal) (replicate samples): 3.38E+07 and 3.70E+07 and 4.18E+07 | L-cysteine level (metabolomics signal) (replicate samples): 5.61E+05 and 2.55E+05 and 1.58E+05 | L-glutamate level (metabolomics signal) (replicate samples): 3.26E+07 and 3.43E+07 and 3.68E+07 | L-glutamine level (metabolomics signal) (replicate samples): 3.77E+07 and 4.04E+07 and 5.11E+07 | L-histidine level (metabolomics signal) (replicate samples): 1.39E+06 and 1.38E+06 and 1.35E+06 | L-isoleucine level (metabolomics signal) (replicate samples): 1.79E+07 and 1.67E+07 and 1.69E+07 | L-leucine level (metabolomics signal) (replicate samples): 1.70E+08 and 1.83E+08 and 2.03E+08 | L-lysine level (metabolomics signal) (replicate samples): 2.70E+06 and 2.39E+06 and 2.59E+06 | L-methionine level (metabolomics signal) (replicate samples): 1.52E+07 and 1.66E+07 and 1.85E+07 | L-phenylalanine level (metabolomics signal) (replicate samples): 8.08E+06 and 8.86E+06 and 1.12E+07 | L-proline level (metabolomics signal) (replicate samples): 4.22E+07 and 3.45E+07 and 3.96E+07 | L-serine level (metabolomics signal) (replicate samples): 2.93E+06 and 2.66E+06 and 3.79E+06 | L-threonine level (metabolomics signal) (replicate samples): 5.71E+06 and 5.05E+06 and 5.98E+06 | L-tryptophan level (metabolomics signal) (replicate samples): 5.93E+06 and 3.78E+06 and 4.71E+06 | L-tyrosine level (metabolomics signal) (replicate samples): 1.94E+07 and 2.09E+07 and 2.16E+07 | L-valine level (metabolomics signal) (replicate samples): 1.34E+08 and 1.45E+08 and 1.42E+08 | dCMP level (metabolomics signal) (replicate samples): 1.87E+04 and 1.84E+04 and 1.76E+04 | dTMP level (metabolomics signal) (replicate samples): 1.29E+06 and 8.42E+05 and 1.18E+06 | glycine level (metabolomics signal) (replicate samples): 1.56E+06 and 1.61E+06 and 1.75E+06 | N-Acyl-D-aspartate (C06380) metabolite signal [1]: 2.47E+05 and 3.01E+05 and 2.50E+05 | Poly-gamma-D-glutamate (C05723) metabolite signal [1]: 2.49E+07 and 2.77E+07 and 3.43E+07 | D-Ribitol 5-phosphate (C01068) metabolite signal [2]: 1.89E+04 and 2.70E+04 and 1.78E+04 | D-glucono-1,5-lactone (C00198) metabolite signal [2]: 5.20E+05 and 6.45E+05 and 5.70E+05 | L-Noradrenaline (C00547) metabolite signal [2]: 5.30E+04 and 6.26E+04 and 5.84E+04 | Oxalosuccinate (C05379) metabolite signal [2]: 1.60E+05 and 1.51E+05 and 1.30E+05 | Pyridoxamine (C00534) metabolite signal [2]: 4.35E+04 and 3.15E+04 and 3.96E+04 | Thioredoxin disulfide (C00343) metabolite signal [2]: 4.45E+04 and 2.53E+04 and 3.52E+04 | 1-4-beta-D-Xylan (metabolite signal) [3]: 2.42E+05 and 2.55E+05 and 2.51E+05 | 2-Hydroxyglutarate/Citramalate (C02630) metabolite signal [3]: 8.78E+04 and 9.72E+04 and 1.18E+05 | 5-6-Dihydrothymine (C00906) metabolite signal [3]: 3.10E+05 and 2.80E+05 and 2.87E+05 | 5-10-Methenyltetrahydrofolate (metabolite signal) [3]: 3.54E+05 and 4.17E+05 and 3.24E+05 | 5-Hydroxyisourate (C11821) metabolite signal [3]: 5.17E+06 and 5.16E+06 and 5.68E+06 | 5-L-Glutamyl-taurine (metabolite signal) [3]: 1.45E+05 and 1.54E+05 and 1.36E+05 | 5-Oxoproline (metabolite signal) [3]: 8.54E+05 and 9.65E+05 and 9.67E+05 | (S)(+)-Allantoin (C02350) metabolite signal [3]: 4.35E+04 and 3.58E+04 and 0.00E+00 | Allantoate (C00499) metabolite signal [3]: 2.71E+05 and 2.04E+05 and 2.56E+05 | Ascorbate (metabolite signal) [3]: 9.30E+04 and 6.85E+04 and 1.08E+05 | CMP-N-acetylneuraminate (metabolite signal) [3]: 1.38E+04 and 2.26E+04 and 3.45E+04 | Carnosine (metabolite signal) [3]: 2.64E+05 and 2.93E+05 and 2.91E+05 | Citrate (C00158) metabolite signal [3]: 2.63E+04 and 3.23E+04 and 3.56E+04 | Creatine (metabolite signal) [3]: 2.99E+08 and 3.28E+08 and 3.02E+08 | Creatinine (metabolite signal) [3]: 3.46E+06 and 3.25E+06 and 2.95E+06 | Cys-Gly (metabolite signal) [3]: 2.55E+06 and 2.28E+06 and 2.13E+06 | D-Glucosamine (metabolite signal) [3]: 1.73E+05 and 2.02E+05 and 1.88E+05 | D-Glucose (C00031) metabolite signal [3]: 6.07E+06 and 5.64E+06 and 6.25E+06 | D-Ribose (C00121) metabolite signal [3]: 1.75E+05 and 2.10E+05 and 1.84E+05 | Dehydroascorbate (metabolite signal) [3]: 1.78E+04 and 9.28E+03 and 1.77E+04 | Dihydrofolate (metabolite signal) [3]: 1.24E+06 and 6.72E+05 and 1.27E+06 | Dimethylglycine (metabolite signal) [3]: 1.14E+06 and 1.17E+06 and 1.06E+06 | Diphosphate (C00013) metabolite signal [3]: 3.26E+03 and 1.34E+03 and 1.52E+03 | Fumarate (C00122) metabolite signal [3]: 1.08E+05 and 1.33E+05 and 1.27E+05 | Glutathione (C00051) metabolite signal [3]: 1.64E+08 and 1.52E+08 and 1.45E+08 | Glutathione disulfide (metabolite signal) [3]: 1.36E+05 and 2.52E+05 and 3.91E+05 | Hypoxanthine (C00262) metabolite signal [3]: 6.53E+04 and 4.36E+04 and 3.66E+04 | IMP (C00130) metabolite signal [3]: 9.13E+04 and 0.00E+00 and 4.11E+04 | Inosine (C00294) metabolite signal [3]: 9.07E+04 and 1.09E+05 and 1.15E+05 | L-Citrulline (metabolite signal) [3]: 3.18E+06 and 3.52E+06 and 3.48E+06 | L-Homoserine (metabolite signal) [3]: 2.14E+05 and 2.01E+05 and 2.23E+05 | Lactate (C01432) metabolite signal [3]: 9.04E+06 and 8.73E+06 and 8.57E+06 | Malate (C00149) metabolite signal [3]: 1.84E+05 and 2.15E+05 and 2.30E+05 | Mannitol (C00392) metabolite signal [3]: 1.48E+05 and 1.43E+05 and 1.44E+05 | N-Acetylneuraminate (metabolite signal) [3]: 2.84E+04 and 2.76E+04 and 2.63E+04 | N-Glycoloyl-neuraminate (metabolite signal) [3]: 1.80E+05 and 1.43E+05 and 1.72E+05 | NAD+ (C00003) metabolite signal [3]: 7.76E+04 and 1.99E+05 and 4.14E+05 | Nicotinamide (C00153) metabolite signal [3]: 3.69E+07 and 3.94E+07 and 3.72E+07 | Ornithine (metabolite signal) [3]: 2.34E+06 (2×) and 2.32E+06 | Oxaloacetate (C00036) metabolite signal [3]: 4.10E+04 and 3.82E+04 and 3.53E+04 | Phosphoserine (metabolite signal) [3]: 5.43E+04 and 2.60E+05 and 7.13E+04 | Putrescine (metabolite signal) [3]: 8.30E+04 and 7.12E+04 and 6.80E+04 | Pyridoxal (C00250) metabolite signal [3]: 7.95E+04 and 8.76E+04 and 8.42E+04 | Pyruvate (C00022) metabolite signal [3]: 6.67E+05 and 7.32E+05 and 6.75E+05 | S-Glutathionyl-L-cysteine (metabolite signal) [3]: 6.44E+04 and 8.58E+04 and 2.21E+05 | Sedoheptulose 1-phosphate (C06222) metabolite signal [3]: 1.56E+04 and 1.68E+04 and 1.80E+04 | Spermidine (metabolite signal) [3]: 9.65E+06 and 9.19E+06 and 9.18E+06 | Spermine (metabolite signal) [3]: 9.74E+06 and 8.90E+06 and 1.00E+07 | Succinate (C00042) metabolite signal [3]: 9.57E+04 and 9.51E+04 and 9.45E+04 | Thymidine (C00214) metabolite signal [3]: 1.34E+04 and 1.17E+04 and 1.87E+04 | UDP (C00015) metabolite signal [3]: 2.09E+05 and 1.18E+05 and 1.38E+05 | UDP-N-acetyl-D-glucosamine (metabolite signal) [3]: 1.55E+04 and 2.01E+04 and 2.26E+04 | UDP-glucose (C00029) metabolite signal [3]: 3.09E+04 and 3.55E+04 and 4.15E+04 | Urate (C00366) metabolite signal [3]: 3.51E+04 and 2.72E+04 and 2.68E+04 | Xanthine (C00385) metabolite signal [3]: 3.66E+05 and 3.57E+05 and 3.29E+05 | alpha-D-Glucosamine 1-phosphate (metabolite signal) [3]: 2.09E+06 and 2.40E+06 and 2.18E+06 | alpha-D-Ribose 1-phosphate (C00620) metabolite signal [3]: 1.08E+05 and 8.84E+04 and 1.07E+05 | gamma-Glutamyl-gamma-aminobutyrate (metabolite signal) [3]: 9.93E+04 and 1.32E+05 and 1.00E+05 | gamma-L-Glutamyl-D-alanine (metabolite signal) [3]: 3.99E+04 and 3.09E+04 and 3.31E+04 | gamma-L-Glutamyl-L-cysteine (metabolite signal) [3]: 1.39E+04 and 2.39E+04 and 2.36E+04
